From patent publication EP0211863B1, “VITAMIN D DERIVATIVES AND METHODS FOR PREPARING SAME” (WISCONSIN ALUMNI RESEARCH FOUNDATION, priority 1985, dated 1986)
pEC50: −log10 of the molar value.

Key:
[1] = Bone calcium mobilization activity (serum calcium by atomic absorption); format: in vivo; details: male weanling rats on low calcium, vitamin D deficient diet for 3 weeks; 650 pmole intrajugularly, 7 h prior to sacrifice; ± standard deviation from the mean
Experimental: Bone calcium mobilization activity of 1α,25-(OH)₂-26-homo-D₃ compounds
Male weanling rats were purchased from Holtzman Co., Madison, Wis. and fed ad libitum a low calcium, vitamin D deficient diet as described by Suda et al (J. Nutrition 100: 1049, 1970) and water for 3 weeks. The rats were then divided into 4 groups of 6 each and were intrajugularly given respectively 650 pmole of either 1α,25-(OH)₂-26-homo-D₃, 1α,25-(OH)₂-(22E)Δ²²-26-homo-D₃ or 1α,25-(OH)₂D₃ dissolved in 0.05 ml of 95% ethanol 7 h prior to sacrifice. […] The rats in the control group were given 0.05 ml of ethanol vehicle in the same manner. They were killed by decapitation, the blood was collected and centrifuged to obtain serum. Serum calcium concentration was determined with an atomic absorption spectrophotometer (Perkin-Elmer Model 214) in presence of 0.1% lanthanum chloride.

[2] = test system: human promyelocytic leukemia cells (HL-60 cells); assay: NBT-reduction assay for differentiation; format: cell-based; details: four days (96 hr) incubation, read-out: concentration to achieve 60% differentiation
Experimental: (§1) The human promyelocytic leukemia cell line (HL-60) was maintained in suspension culture in RPMl 1640 medium (Gibco, Grand Island, NY) supplemented with 10% (v/v) heat inactivated fetal calf serum, 100 ug/ml penicillin, 100 µg/ml streptomycin and 0.25 µg/ml fungizone. Cells were cultured in a humidified atmosphere with 5% CO₂. Cell viability was assessed by standard assays, e.g. trypan blue exclusion. Morphological evaluations were done on Wright stained slide preparations.
(§2) Cells were seeded at 1.5 - 2 x 10⁵ cells/ml in 10 ml of medium in tissue culture dishes. […] Control cultures were treated with the same concentration of ethanol. After four days (96 hr) of incubation with test compounds, the cells were harvested from these culture dishes and cell number and viability were determined. […] After incubation of this mixture for 1 hr at 37°C, the number of phagocytic cells was counted (as determined by the trypan blue stained yeast appearing intracellularly) and expressed as a percent of the total viable cells present. […] After standing in a water bath for 30 min, the differentiated cells (i.e. the cells showing formazan blue deposits indicative of NBT reduction) were counted with a hemocytometer and expressed as the percent of total viable cells present.

[3] = test system: human promyelocytic leukemia cells (HL-60 cells); assay: Phagocytosis assay for differentiation activity; format: cell-based; details: four days (96 hr) incubation
Experimental: as §1, §2

**Q.** With `C=C1/C(=C\C=C2/CCC[C@]3(C)[C@@H]([C@H](C)CCCC(C)(O)CC)CC[C@@H]23)C[C@@H](O)C[C@@H]1O` (stereo partly drawn) [1α,25-(OH)₂-26-homo-D₃, (25ξ)-1α,25-Dihydroxy-26-homovitamin D₃] as the molecule, how does the “Serum Calcium Concentration” value [1] read?
**A.** The value was 4.6 ± 0.2 ^b^) mg/100 ml.

**Q.** Which “Serum Calcium Concentration” value [1] does the source give for `C=C1/C(=C\C=C2/CCC[C@]3(C)[C@@H]([C@H](C)/C=C/CC(C)(O)CC)CC[C@@H]23)C[C@@H](O)C[C@@H]1O` (stereo partly drawn) [1α,25-(OH)₂-(22E)Δ²²-26-homo-D₃, (22E,25ξ)-1α,25-Dihydroxy-22-dehydro-26-homovitamin D₃] here?
**A.** Its value is 4.6 ± 0.3 ^b^) mg/100 ml.

**Q.** Which EC60 [2] does the source give for `C=C1/C(=C\C=C2/CCC[C@]3(C)[C@@H]([C@H](C)CCCC(C)(C)O)CC[C@@H]23)C[C@@H](O)C[C@@H]1O` [1α,25-(OH)₂D₃, 1α,25-dihydroxyvitamin D₃] here?
**A.** Its EC60 is 0.035 µM.

**Q.** And the “Serum Calcium Concentration” value [1]?
**A.** The value was 4.5 ± 0.2 ^b^) mg/100 ml.

**Q.** What about the pEC50 ([3]; Homo sapiens, HL-60, phagocytosis assay, read-out: concentration to achieve 50% differentiation) of the same molecule?
**A.** Its pEC50 is ~8.00.

**Q.** What about the “differentiation (% phagocytic cells)” value ([3]; concentration of 10⁻⁸ molar) of the same molecule?
**A.** Its value is “about 47%”.
